Data taken from patent publication EP0418835B1, “Novel alkaline pullulanase y having alpha-amylase activity, microorganism producing the same, and process for producing the same” (KAO CORPORATION, priority 1989, dated 1991).

Assays:
Type in all cases: biochemical, Bacillus sp. KSM-AP1378
alkaline pullulanase Y [1] = assay: Substrate specificity (relative activity on various substrates); conditions: substrate concentration 1 x 10⁻² M
Method: (§1) 0.1 ml of enzyme solution was added to 0.9 ml of each substrate solution prepared from each buffer solution containing pullulan (final concentration in the reaction system: 0.25% w/v) and the mixture was reacted at 40°C for 30 minutes. After the reaction, reducing sugars were quantitatively determined by means of the 3,5-dinitro-salicylic acid (DNS) procedure. Specifically, 1.0 ml of a DNS reagent was added to 1.0 ml of reaction mixture and the mixture was heated at 100°C for 5 minutes to develop a color. After cooling, the mixture was diluted by adding 4.0 ml of deionized water. This solution was subjected to colorimetric quantitative analysis at a wave length of 535 nm. One unit (1 U) of enzyme activity was defined as the amount of enzyme which released 1 µmol of reducing sugar (as glucose) per minute under the standard assay conditions.
Acts on pullulan, soluble starch, and glycogen. (See Table 1) Table 1

alkaline pullulanase Y [2] = assay: Effects of metal ions and chelating agents on pullulanase activity (DNS reducing sugar assay)
Method: as §1

alkaline pullulanase Y [3] = assay: Effects of metal ions and chelating agents on α-amylase activity (DNS reducing sugar assay)
Method: as §1, with “soluble starch” for “pullulan”, “50°C” for “40°C”, “15” for “30”, “a DNS method.” for “the 3,5-dinitro-salicylic acid (DNS) procedure.”

Molecule	Relative Activity (%) (alkaline pullulanase Y [1])	Residual activity (%) Pullulanase Activity (alkaline pullulanase Y [2]; metal salt 1 mM) [%]	Residual activity (%) α-amylase Activity (alkaline pullulanase Y [3]; metal salt 1 mM) [%]	further results
OC[C@H]1O[C@H](O[C@H]2[C@H](O)[C@@H](O)C(O)O[C@@H]2CO)[C@H](O)[C@@H](O)[C@@H]1O (mixture of isomers) [Maltose]	0			
[Cl][Cd][Cl] [CdCl₂]		80	38	
O=C(O)CN(CCN(CC(=O)O)CC(=O)O)CC(=O)O [EDTA]				Residual activity (%) Pullulanase Activity (alkaline pullulanase Y [2]; chelating agent 10 mM): 77%
O=C(O)CN(CCOCCOCCN(CC(=O)O)CC(=O)O)CC(=O)O [EGTA]				Residual activity (%) Pullulanase Activity (alkaline pullulanase Y [2]; chelating agent 10 mM): 65%; Residual activity (%) α-amylase Activity (alkaline pullulanase Y [3]; chelating agent 10 mM): 18%; Residual activity (%) α-amylase Activity when Ca⁺² ions was again added (alkaline pullulanase Y [3]; chelating agent 10 mM, Ca⁺² ions added again (value in parenthesis)): 91%
OC[C@H]1O[C@@H](OC[C@H]2OC(O)[C@H](O)[C@@H](O)[C@@H]2O)[C@H](O)[C@@H](O)[C@@H]1O (some centres unmarked) [Gentiobiose]	0			
OC[C@H]1O[C@H](OC[C@H]2OC(O)[C@H](O)[C@@H](O)[C@@H]2O)[C@H](O)[C@@H](O)[C@@H]1O (some centres unmarked) [Isomaltose]	4			
OC[C@H]1O[C@H](OC[C@H]2O[C@H](OC[C@H]3OC(O)[C@H](O)[C@@H](O)[C@@H]3O)[C@H](O)[C@@H](O)[C@@H]2O)[C@H](O)[C@@H](O)[C@@H]1O (some centres unmarked) [Isomaltotriose]	11			
OC[C@H]1O[C@H](O[C@H]2[C@H](O)[C@@H](O)[C@@H](O[C@H]3[C@H](O)[C@@H](O)C(O)O[C@@H]3CO)O[C@@H]2CO)[C@H](O)[C@@H](O)[C@@H]1O (some centres unmarked) [Maltotriose]	0			
[Cl][Mn][Cl] [MnCl₂]		51	28	
OC[C@H]1O[C@H](OC[C@H]2O[C@H](O[C@H]3[C@H](O)[C@@H](O)C(O)O[C@@H]3CO)[C@H](O)[C@@H](O)[C@@H]2O)[C@H](O)[C@@H](O)[C@@H]1O (some centres unmarked) [Panose]	0			
[Cl][Pb][Cl] [PbCl₂]		53	53	
[Cl-].[Cl-].[Zn+2] [ZnCl₂]		93	57	
HgCl₂		36	53	
